Data reported in publication PMC10451377, “Rationally Designed Pyrimidine Compounds: Promising Novel Antibiotics for the Treatment of Staphylococcus aureus-Associated Bovine Mastitis” (Antibiotics, 2023).
Values after ≈ are worked out from the molar mass of the structure shown.

Assays:
[1] = tested on: all tested bacterial strains, including non-staphylococci strains; assay: Broth microdilution MIC, summary over all strains tested; settings: read-out: MIC of DTT
[2] = tested on: Escherichia coli ΔlptD4213; assay: microbe, parasite or virus in culture; format: cell-based; settings: read-out: Broth Microdilution MIC
Description: Reference strains for this study (S. aureus ATCC 29213, ATCC 29740 [bovine mastitis strain Newbould], S. epidermidis ATCC 12228, E. coli ATCC 35695, E. faecalis ATCC 29212) were obtained from the American Type Culture Collection (ATCC, Rockville, MD). S. aureus strains CMRSA-10 and CMRSA-2 were obtained from the Laboratoire de santé publique du Québec (LSPQ, Sainte-Anne-de-Bellevue, QC, Canada) and are Canadian CA-MRSA USA-300 and HA-MRSA USA-100 clones, respectively. The strain E. coli imp4213 (lptD), used as a control in MIC assays, is a derivative of E. coli ATCC 35695 (E. coli MC4100) with an increased membrane permeability. […] Other MRSA strains used in this study are clinical isolates of human origin obtained from the microbiology laboratory of the Centre Hospitalier Universitaire de Sherbrooke (CHUS, Sherbrooke, QC, Canada). Bovine mastitis strains (S. aureus, S. chromogenes, S. haemolyticus, S. hominis, S. simulans) were obtained from the Canadian Bovine Mastitis and Milk Quality Research Network (CBRQMN, St-Hyacinthe, QC, Canada). Among these strains, S. aureus 2117 is a high producer of biofilm and was used in the biofilm-eradication assay. S. epidermidis isolates were provided by Centre de Recherche en Infectiologie (CRI) de Québec (Québec, QC, Canada).

[3] = tested on: Escherichia coli ATCC 35695; assay: Broth microdilution MIC; settings: ATCC35695, read-out: Broth Microdilution MIC
[4] = tested on: S. aureus bovine strain 2117 embedded in preformed biofilm; assay: Biofilm-eradication test (MBEC assay); format: cell-based, Staphylococcus aureus; settings: 24 h preformed biofilm
Protocol: The viability of bacteria in preformed biofilms treated with PC206 was evaluated using the MBEC assay™ system (formerly the Calgary Biofilm Device). The device consists of a plastic lid with 96 pegs and a 96-well plate. […] Plates were incubated at 35 °C for 24 h with agitation (120 rpm). […] The pegs were washed three times with PBS and the biofilm was sonicated for 10 min, and then transferred into a new 96-well base plate. The 96-well plate was centrifuged for 5 min at 180 g to recover the detached bacteria.

[5] = tested on: guanine riboswitch-lacZ fusion construct (xpt-lacZ); assay: Riboswitch regulation assay (lacZ-gene reporter); format: cell-based, B. subtilis; settings: concentration as low as 1 µg/mL
Description: The novel pyrimidine compounds, especially PC206, display specificity and potency against some staphylococci but not the other bacterial genus (Table 1 and Table 2). Because they are structurally derived from PC1 and PC2, these novel antibiotic candidates are expected to have the same mode of action. […] To verify this hypothesis, a strain of B. subtilis with a guanine riboswitch-lacZ fusion construct (named xpt-lacZ) integrated in its chromosome was exposed to these new antimicrobials. […] Therefore, it is an adequate reporter species. The metabolization of substrate ONPG into colored ONP was normalized by the bacterial suspension absorbance at 600 nm (Miller units) and relativized to the untreated condition.
β-galactosidase gene expression in the presence of the new pyrimidine analogs was studied, using an xpt-lacZ transcriptional fusion construct integrated in the genome of B. subtilis as previously described. Briefly, cultures were grown for 5 h at 35 °C in CAMHB, from an initial optical density of 0.05 at 600 nm (OD600), and then diluted 1:20 and in the presence of different concentrations of the compounds tested. Cultures were centrifuged for 10 min at 13,100 rpm, the supernatant was discarded, and pellets were suspended in a Z-buffer (NaH2PO4 40 mM, Na2HPO4 60 mM, MgSO4 1 mM, KCl 10 mM). Cultures OD600 were measured, and bacteria were then lysed with lysozyme (1 mg/mL) and β-mercaptoethanol 50 mM for 30 min. Lysates were centrifuged for 10 min at 13,100 rpm, and supernatants were incubated for 5 min at 30 °C with the substrate orthonitrophenyl-β-galactoside (ONPG; Sigma Aldrich). Reactions were stopped with Na2CO3 1M, supernatants OD420 were measured, and Miller units were calculated. A decrease in β-galactosidase activity indicated binding of the test compound to the riboswitch. Guanine and oxacillin were used as […] controls, respectively. The formula to measure Miller units is as follows: Millerunits=1000×OD420/t·v·OD600
Here, t represents the time of incubation with ONPG, and v represents the volume of the reaction.

SMILES: O[C@@H](CS)[C@@H](O)CS (racemic) [DTT, dithiothreitol, reference compound]
- MIC [1]: > 75 mM

SMILES: CC(C)(O/N=C(\C(=O)N[C@@H]1C(=O)N2C(C(=O)[O-])=C(C[n+]3ccccc3)CS[C@H]12)c1csc(N)n1)C(=O)O [CAZ, ceftazidime, reference compound]
- MIC [2]: 0.03 µg/mL (≈ 0.0549 µM)
- MIC [3]: 0.25 µg/mL (≈ 0.457 µM)

SMILES: CNC(C)C1CCC(N)C(OC2C(N)CC(N)C(OC3OCC(C)(O)C(NC)C3O)C2O)O1 (centres unmarked) [Gentamicin, reference compound]
- Lowest concentration that significantly reduced CFU/peg [4]: 2 µg/mL

SMILES: Nc1nc2nc[nH]c2c(=O)[nH]1 [Guanine, reference compound]
- Effect on lacZ expression [5]: strongly inhibited lacZ expression
